The test system of test [1] is HEK293. Put plainly: membrane integrity loss in HEK cells – cell-based, fluorescence, cytotoxicity control for IDE activator project, dose response (AID 588440).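 Further: cytotoxicity by LDH release measuring loss of membrane integrity.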 The format is functional. The conditions noted are these: Homo sapiens.
The target in test [2] is Beta-lactamase (Pseudomonas aeruginosa, UniProt Q79MP6).
Test [3] concerns the target T1, Insulin-degrading enzyme (Homo sapiens, UniProt P14735).
T1 sequence (P14735 whole entry): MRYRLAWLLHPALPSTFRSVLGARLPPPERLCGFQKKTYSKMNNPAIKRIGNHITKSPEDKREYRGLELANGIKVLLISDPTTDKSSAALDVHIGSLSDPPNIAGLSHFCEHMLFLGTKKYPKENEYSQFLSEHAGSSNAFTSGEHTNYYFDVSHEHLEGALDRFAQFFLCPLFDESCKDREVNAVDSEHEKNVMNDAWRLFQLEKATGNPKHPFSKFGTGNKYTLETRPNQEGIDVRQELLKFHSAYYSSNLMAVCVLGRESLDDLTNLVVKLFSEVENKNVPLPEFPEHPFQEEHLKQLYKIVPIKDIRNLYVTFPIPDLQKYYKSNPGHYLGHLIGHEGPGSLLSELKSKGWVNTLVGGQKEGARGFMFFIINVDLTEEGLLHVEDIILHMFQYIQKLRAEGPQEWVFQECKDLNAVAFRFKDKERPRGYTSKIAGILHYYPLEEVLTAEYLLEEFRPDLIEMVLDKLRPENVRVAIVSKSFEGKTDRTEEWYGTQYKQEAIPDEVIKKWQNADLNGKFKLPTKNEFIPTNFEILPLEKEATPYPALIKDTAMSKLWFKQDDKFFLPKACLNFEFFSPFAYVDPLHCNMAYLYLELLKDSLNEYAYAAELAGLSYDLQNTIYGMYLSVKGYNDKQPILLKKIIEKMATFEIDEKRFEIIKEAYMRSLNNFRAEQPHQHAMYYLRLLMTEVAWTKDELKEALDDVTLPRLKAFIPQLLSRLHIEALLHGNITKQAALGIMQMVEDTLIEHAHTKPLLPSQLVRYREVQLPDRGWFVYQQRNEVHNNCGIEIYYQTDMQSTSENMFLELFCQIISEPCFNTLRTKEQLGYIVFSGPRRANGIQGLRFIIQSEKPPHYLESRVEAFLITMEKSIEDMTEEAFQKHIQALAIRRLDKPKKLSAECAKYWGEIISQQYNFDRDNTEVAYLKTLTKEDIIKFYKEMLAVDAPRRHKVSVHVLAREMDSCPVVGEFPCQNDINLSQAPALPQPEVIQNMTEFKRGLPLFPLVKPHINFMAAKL
Put plainly: recombinant IDE activation, cell-free – biochemical, fluorescence polarization, counter-screen for IDE activator project, dose response (AID 588681). (In fluorescence polarisation assays a small probe gives low polarisation when free and higher when bound to something large.)

Test [4] relates to HEK293. The test is described as follows: optical interference in Abeta FP readout, dose response, artefact control for IDE activator project, biochemical, fluorescence polarization (AID 588442). The format is functional, cell-based. The conditions noted are these: Homo sapiens.
Test [5] has as its target Beta-lactamase (Salmonella choleraesuis (strain SC-B67), UniProt Q5J463).
For test [6], the target named is T1, Insulin-degrading enzyme. Put plainly: cellular IDE activation of Abeta substrate cleavage – fluorescence polarization, HEK cells, dose response (AID 588439). The format is functional, cell-based.
The target of test [7] is T2, Polyadenylate-binding protein 1 (Homo sapiens, UniProt P11940). Put plainly: MLLE domain peptide-binding blockers, IC50 – biochemical, fluorescence polarization, FITC-PAM2 peptide, dose response (AID 602259). The format is functional. The conditions noted are these: read-out: IC50_Mean.
Test [8] deals with SWI/SNF-related matrix-associated actin-dependent regulator of chromatin subfamily A member 2 (Homo sapiens, UniProt P51531). Put plainly: Luminescence-based cell-based high throughput dose response assay to identify activators of the function of SWI/SNF related, matrix associated, actin dependent regulator of chromatin, subfamily a, member 2 (SMARCA2, BRM). The format is functional.

Test [9] concerns the target T2, Polyadenylate-binding protein 1. The test is described as follows: MLLE binding blockers, Cy5 peptide tracer – biochemical, fluorescence polarization, Cy5-PAM2 peptide, secondary, miRNA deadenylation inhibitor project, dose response (AID 602260). The format is functional. The conditions noted are these: read-out: IC50_Mean.
Test [10] is described as follows: Counterscreen for activators of the function of SWI/SNF related, matrix associated, actin dependent regulator of chromatin, subfamily a, member 2 (SMARCA2, BRM): Luminescence-based cell-based high throughput dose response assay to identify non-selective compounds using the VP16 reporter assay. The format is functional. A general note: A counterscreen serves to expose hits that act by an unwanted route or on another target.

Another test has as its target T3, X-box-binding protein 1 (Homo sapiens, UniProt P17861).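 Further: confirmatory dose-response counter-screen serving a CHOP assay.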
T3 sequence (P17861 whole entry): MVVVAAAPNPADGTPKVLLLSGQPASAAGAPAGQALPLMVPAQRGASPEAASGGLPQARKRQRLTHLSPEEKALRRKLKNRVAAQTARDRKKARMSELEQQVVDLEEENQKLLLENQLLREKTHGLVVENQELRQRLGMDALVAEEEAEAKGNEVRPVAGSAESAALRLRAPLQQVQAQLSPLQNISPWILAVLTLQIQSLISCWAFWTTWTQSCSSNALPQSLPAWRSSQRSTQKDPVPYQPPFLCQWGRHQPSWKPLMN
The format is functional, Cricetulus griseus.

The target of test [11] is 5-hydroxytryptamine receptor 2A (Mus musculus, UniProt P35363). The format is functional, cell-based.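 Further: CHO-K1 cells with tagged receptor and beta-arrestin; agonist potency measured as compound-induced activation of the receptor.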
Test [12] deals with Voltage-gated inwardly rectifying potassium channel KCNH2 (Homo sapiens, UniProt Q12809). The conditions noted are these: Potency.
A further test concerns the target Mu-type opioid receptor (Homo sapiens, UniProt P35372). The format is functional, cell-based.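 Further: U2OS cells with beta-arrestin recruitment to OPRM1 by beta-gal complementation.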

Each structure is given as a SMILES string. Calls of active or inactive are those of the source.

We go through three compounds from ChEMBL document CHEMBL1201862, “PubChem BioAssay data set” (2004).
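Wherever AC50 is given: confirmatory quantitative high-throughput screen measuring inhibition of hERG channel activity.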

T2 sequence (P11940 whole entry, the tested form may be a part): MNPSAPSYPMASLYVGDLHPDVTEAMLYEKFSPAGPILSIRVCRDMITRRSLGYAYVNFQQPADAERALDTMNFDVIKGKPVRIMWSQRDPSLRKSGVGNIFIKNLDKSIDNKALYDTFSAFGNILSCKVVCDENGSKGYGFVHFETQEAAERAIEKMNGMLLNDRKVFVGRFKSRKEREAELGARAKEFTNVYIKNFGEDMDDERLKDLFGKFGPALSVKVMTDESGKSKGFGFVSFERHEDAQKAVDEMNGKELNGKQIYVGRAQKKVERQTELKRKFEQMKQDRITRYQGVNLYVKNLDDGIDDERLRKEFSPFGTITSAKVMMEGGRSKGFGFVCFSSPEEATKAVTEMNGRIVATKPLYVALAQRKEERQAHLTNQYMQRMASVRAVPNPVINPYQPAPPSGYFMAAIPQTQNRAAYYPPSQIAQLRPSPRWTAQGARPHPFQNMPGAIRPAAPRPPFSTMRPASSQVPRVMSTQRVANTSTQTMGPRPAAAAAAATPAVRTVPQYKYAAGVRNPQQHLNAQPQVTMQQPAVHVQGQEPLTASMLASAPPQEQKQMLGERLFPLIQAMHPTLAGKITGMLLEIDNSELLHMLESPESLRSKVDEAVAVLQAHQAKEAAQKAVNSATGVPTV
Beta-lactamase (Salmonella choleraesuis (strain SC-B67), UniProt Q5J463), sequence (Q5J463 whole entry): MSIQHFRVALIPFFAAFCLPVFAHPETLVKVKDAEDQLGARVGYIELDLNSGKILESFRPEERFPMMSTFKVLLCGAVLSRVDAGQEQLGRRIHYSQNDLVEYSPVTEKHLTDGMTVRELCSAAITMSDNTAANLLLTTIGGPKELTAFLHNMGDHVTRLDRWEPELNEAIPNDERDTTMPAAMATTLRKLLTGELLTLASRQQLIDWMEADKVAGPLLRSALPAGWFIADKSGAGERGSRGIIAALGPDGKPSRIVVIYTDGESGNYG
Beta-lactamase (Pseudomonas aeruginosa, UniProt Q79MP6), sequence (Q79MP6 whole entry): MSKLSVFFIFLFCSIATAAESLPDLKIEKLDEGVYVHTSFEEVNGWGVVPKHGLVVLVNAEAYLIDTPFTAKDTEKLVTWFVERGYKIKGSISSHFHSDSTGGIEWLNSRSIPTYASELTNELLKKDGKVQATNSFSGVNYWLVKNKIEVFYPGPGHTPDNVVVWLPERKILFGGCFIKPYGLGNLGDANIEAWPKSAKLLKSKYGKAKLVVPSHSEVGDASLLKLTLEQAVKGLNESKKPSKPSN
Mu-type opioid receptor, sequence (P35372 whole entry): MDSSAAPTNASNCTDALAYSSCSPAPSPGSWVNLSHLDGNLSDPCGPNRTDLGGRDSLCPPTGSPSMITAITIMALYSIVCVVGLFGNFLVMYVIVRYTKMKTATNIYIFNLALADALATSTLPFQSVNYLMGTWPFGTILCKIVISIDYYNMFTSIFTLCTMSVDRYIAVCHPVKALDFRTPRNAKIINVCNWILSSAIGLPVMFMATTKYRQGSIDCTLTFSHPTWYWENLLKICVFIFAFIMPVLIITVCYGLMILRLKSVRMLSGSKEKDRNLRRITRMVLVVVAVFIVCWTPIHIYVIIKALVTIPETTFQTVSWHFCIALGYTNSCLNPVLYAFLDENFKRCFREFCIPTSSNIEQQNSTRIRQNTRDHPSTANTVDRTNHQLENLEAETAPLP
5-hydroxytryptamine receptor 2A, sequence (P35363 whole entry): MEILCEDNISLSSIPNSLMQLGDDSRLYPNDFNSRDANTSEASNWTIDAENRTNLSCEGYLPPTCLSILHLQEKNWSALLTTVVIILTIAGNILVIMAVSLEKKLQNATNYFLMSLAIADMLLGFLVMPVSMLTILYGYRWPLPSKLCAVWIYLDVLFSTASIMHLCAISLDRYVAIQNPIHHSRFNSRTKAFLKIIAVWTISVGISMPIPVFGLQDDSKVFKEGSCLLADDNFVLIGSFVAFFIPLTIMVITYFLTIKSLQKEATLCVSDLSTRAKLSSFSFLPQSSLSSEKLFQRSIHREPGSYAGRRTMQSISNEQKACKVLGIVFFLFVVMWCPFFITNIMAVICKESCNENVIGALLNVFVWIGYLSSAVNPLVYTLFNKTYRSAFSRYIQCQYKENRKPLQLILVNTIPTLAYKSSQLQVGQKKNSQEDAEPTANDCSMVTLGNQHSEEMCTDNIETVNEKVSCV
Voltage-gated inwardly rectifying potassium channel KCNH2, sequence (Q12809 whole entry): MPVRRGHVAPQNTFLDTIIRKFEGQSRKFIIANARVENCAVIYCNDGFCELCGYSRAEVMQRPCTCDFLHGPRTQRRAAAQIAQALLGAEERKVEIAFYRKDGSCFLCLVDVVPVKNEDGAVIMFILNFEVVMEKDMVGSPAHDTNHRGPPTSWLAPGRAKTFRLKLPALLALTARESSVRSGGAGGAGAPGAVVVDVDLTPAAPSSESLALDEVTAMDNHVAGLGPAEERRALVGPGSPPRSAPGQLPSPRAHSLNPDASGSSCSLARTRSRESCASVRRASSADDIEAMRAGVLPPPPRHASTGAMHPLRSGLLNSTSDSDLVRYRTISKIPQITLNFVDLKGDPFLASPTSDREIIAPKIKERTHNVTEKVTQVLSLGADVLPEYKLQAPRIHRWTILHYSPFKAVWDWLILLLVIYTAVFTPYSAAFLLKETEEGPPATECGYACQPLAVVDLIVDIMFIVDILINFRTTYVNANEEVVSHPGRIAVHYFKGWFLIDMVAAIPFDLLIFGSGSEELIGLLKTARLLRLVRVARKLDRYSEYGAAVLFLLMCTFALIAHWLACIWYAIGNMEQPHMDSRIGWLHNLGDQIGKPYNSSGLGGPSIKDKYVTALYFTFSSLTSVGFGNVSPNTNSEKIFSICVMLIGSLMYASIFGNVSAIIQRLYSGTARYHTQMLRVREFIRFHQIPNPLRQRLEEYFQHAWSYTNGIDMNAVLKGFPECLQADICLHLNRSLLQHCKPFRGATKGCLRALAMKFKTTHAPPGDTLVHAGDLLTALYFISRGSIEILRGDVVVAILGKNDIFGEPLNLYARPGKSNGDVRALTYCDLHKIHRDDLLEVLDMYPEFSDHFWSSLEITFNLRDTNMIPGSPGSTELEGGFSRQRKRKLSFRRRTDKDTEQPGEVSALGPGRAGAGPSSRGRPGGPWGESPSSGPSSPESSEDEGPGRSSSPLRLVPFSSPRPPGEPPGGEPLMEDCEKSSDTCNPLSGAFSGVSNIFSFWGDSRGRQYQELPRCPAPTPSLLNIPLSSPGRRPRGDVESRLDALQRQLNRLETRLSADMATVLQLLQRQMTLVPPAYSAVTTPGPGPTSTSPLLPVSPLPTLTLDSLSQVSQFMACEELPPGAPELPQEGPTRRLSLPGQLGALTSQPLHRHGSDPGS
SWI/SNF-related matrix-associated actin-dependent regulator of chromatin subfamily A member 2, sequence (P51531 whole entry): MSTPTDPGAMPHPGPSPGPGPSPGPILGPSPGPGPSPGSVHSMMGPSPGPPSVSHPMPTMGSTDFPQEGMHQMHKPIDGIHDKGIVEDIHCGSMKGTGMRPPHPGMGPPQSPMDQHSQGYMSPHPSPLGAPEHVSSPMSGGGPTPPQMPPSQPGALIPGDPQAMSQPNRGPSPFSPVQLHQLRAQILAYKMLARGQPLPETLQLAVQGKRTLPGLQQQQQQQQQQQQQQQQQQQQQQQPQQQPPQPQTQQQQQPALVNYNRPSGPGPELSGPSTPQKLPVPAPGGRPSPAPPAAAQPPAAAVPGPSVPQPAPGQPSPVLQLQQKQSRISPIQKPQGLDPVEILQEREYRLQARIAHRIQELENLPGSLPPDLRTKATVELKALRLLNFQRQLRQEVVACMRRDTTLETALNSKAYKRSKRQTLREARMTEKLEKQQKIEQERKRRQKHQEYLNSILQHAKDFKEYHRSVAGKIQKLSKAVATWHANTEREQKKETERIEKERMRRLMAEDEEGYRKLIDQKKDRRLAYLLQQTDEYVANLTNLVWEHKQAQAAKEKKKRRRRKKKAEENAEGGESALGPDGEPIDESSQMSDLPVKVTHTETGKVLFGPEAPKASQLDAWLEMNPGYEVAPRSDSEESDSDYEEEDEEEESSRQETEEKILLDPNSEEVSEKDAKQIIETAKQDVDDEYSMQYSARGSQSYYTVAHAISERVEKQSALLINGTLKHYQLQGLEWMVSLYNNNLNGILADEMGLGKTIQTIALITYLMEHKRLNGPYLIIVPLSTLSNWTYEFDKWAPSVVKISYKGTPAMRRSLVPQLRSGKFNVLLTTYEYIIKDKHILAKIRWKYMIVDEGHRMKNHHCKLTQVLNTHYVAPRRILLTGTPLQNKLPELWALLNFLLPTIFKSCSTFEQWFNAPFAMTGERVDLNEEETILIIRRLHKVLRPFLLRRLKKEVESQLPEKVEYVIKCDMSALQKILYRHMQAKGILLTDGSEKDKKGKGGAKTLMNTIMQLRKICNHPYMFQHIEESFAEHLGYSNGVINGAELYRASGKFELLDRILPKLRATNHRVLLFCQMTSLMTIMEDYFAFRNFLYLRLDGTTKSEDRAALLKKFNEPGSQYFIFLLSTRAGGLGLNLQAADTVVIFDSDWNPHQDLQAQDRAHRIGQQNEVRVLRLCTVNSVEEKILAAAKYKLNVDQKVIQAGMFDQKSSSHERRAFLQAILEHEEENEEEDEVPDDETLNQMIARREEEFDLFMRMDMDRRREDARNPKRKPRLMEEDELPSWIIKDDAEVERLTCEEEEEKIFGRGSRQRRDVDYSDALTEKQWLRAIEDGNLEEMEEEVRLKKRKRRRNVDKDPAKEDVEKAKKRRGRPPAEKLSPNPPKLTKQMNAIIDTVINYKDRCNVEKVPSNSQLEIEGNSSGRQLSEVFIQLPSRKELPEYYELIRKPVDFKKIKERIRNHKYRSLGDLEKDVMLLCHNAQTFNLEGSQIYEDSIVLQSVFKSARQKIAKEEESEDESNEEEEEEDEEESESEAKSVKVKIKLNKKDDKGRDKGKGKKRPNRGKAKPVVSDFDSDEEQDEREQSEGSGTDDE

With `N#CC(C#N)=C1C=C2C=C(N3CCCCCC3)CCC2CC1` (centres undefined), the IC50 was > 89.1 µM (inactive) in the test with HEK293 [1], 2.78 µM (active) on Beta-lactamase [2] and 1.04 µM (active) at Beta-lactamase [5]. Also, the EC50 on Insulin-degrading enzyme [3], in the test with HEK293 [4] and at Insulin-degrading enzyme [6] was > 54.7 µM (inactive) in each case.

Regarding `COc1ccc2c3c(cccc13)C(=O)N(O)C2=O`, the IC50 in test [7] was 35.2 µM (inactive); in test [9], > 66 µM (inactive). Further, the EC50 in test [8] was 26.4 µM (inactive); in test [10] it was > 91.2 µM (inactive). On X-box-binding protein 1, the “Absolute IC50 (XBP1)” value worked out at 10 µM.

In the case of `CN1CCc2cc(O)c(O)cc2C(c2ccccc2)C1` (centres undefined), the EC50 was 1.36 µM (active) in test [11] and 92.5 µM (inactive) at Mu-type opioid receptor. In addition, the AC50 in test [12] was 35.5 µM (inconclusive).

By EC50 is commonly meant the concentration needed to bring the measured effect to its halfway point. Usually AC50 stands for the midpoint of the concentration-response curve, whichever way the signal moves.
